Test results reported in patent publication US20250179126A1, “A NOVEL PEPTIDE FROM A PHOTOSYNTHETIC BACERIUM DIRECTLY TARGETS MITOCHONDRIA TO TRIGGER APOPTOSIS IN ADVANCED PROSTATE CANCER CELLS” (priority 2022, published 2025).
Entries after “also recorded” stand apart in the source; their conditions may differ.

What was measured:
[1] = biological target: T1, mitochondrial ATP synthase gamma subunit (ATP5C) (Homo sapiens, UniProt P36542); experiment: Pull-down assay with biotin-labeled peptides and protein identification; assay type: binding; conditions: mitochondrial fraction of PC3 cells, biotin-labeled peptide, 16 hr at 4° C.
T1 construct: endogenous in cells; host or cells: PC3 human prostate cancer cells, mitochondrial fraction (detergent extract)
T1 sequence (P36542 26-298): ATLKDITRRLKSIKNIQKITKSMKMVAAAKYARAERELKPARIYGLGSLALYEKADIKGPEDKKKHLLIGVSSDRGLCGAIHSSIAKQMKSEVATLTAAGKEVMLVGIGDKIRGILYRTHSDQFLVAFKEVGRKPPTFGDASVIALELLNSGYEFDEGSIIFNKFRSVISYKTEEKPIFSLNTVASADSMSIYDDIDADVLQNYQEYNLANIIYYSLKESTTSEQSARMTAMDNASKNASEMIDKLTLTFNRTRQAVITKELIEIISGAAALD
Source text: 8A, TEM image of PC3 cells. Representative TEM micrograph of aurB-treated cells depicting the intraritochondrial localization of aurB-GNRs (arrowheads) and mitochondria](Mt) swelling. Scale bar: 600 nm. Mt: mitochondria. […] Coomassie-stained SDS-PAGE gels are shown (8B). The protein band at ˜35 kDa (arrowhead) was identified as ATP5C using mass spectrometry analysis. The identified fragments are indicated in green underlined sequence (SEQ ID NO: 4)(8C).
Pull-down assay and protein identification: PC3 cells were washed twice with PBS, and the mitochondrial fraction was prepared with a Qproteome mitochondria isolation kit (Qiagen). […] The peptides were then preincubated with streptavidin-agarose beads for 4 hr. After washing, the beads were boiled, and the released proteins were subjected to SDS-PAGE analysis. A protein band of ˜35 kDa was subjected to microcapillary LC/MS/MS for protein identification (Harvard Medical School, Taplin Mass Spectrometry Facility). For IB, proteins were transferred to nitrocellulose membranes. After blocking with 5% BSA in TBST, the membranes were incubated with anti-ATP5C antibody at 1:25,000 in 5% BSA/TBST (Abcam) for 16 hr at 4° C. The secondary antibody was applied (anti-goat IgG-HRP; Santa Cruz Biotechnology). The signal was detected using enhanced chemiluminescence (ECL).

[2] = system: SKOV-3 ovarian cancer cells; experiment: MTT cell viability assay, SKOV-3 ovarian cancer cells; assay type: cell-based, human; conditions: 24 hr
Source text: (§1) Cell viability was detected by MTT assays, and the control (PBS-treated) cells were considered 100% viable. Mean±SE (N=3). *P<0.05, **P<0.01, ***P<0.001.
(§2) Cell lines and culture: Human cancer and noncancer (immortalized and nonimmortalized) cell lines were obtained from the American Type Culture Collection [prostate cancer (PC3, DU145 and LNCaP), normal prostate (CRL11611), breast cancer (MCF-7), ovarian cancer (SK-OV3 adenocarcinoma), lung cancer (A549)]. MDD2 breast cancer cells (p53 dominant-negative) were provided courtesy of Dr Andrei V. Gudkov, Roswell Park Cancer Institute. 20 All cell lines were cultured in MEM-E (Invitrogen) supplemented with 10% heat-inactivated fetal bovine serum (Atlanta Biological, Inc.), 100 units/mL penicillin, and 100 μg/mL streptomycin at 37° C. in 5% CO2.
Cytotoxicity assay: The MTT assay was performed as we previously described (Cha et al., Cancer Research 2020, 80: 1615-1623).

[3] = system: DU145 prostate cancer cells; experiment: MTT cell viability assay, DU145 prostate cancer cells; assay type: cell-based, human
Source text: as §1, §2

[4] = system: LNCaP cells; experiment: Annexin-V apoptosis assay by flow cytometry, LNCaP; assay type: cell-based, human; conditions: 48 hr, Ptxl 1 nM, p28 50 μM, aurA/aurB 0.5-50 μM
Method: FIG. 7A-7D: Determination of apoptotic cell death. Prostate cancer cell lines (7A: LNCaP, 7B: DU145 and 7C: PC3) and normal prostate CRL11611 cells (7D) were exposed to the indicated agents for 48 hr and stained using apoptosis assay kits according to the manufacturer's instructions. The samples were analyzed by flow cytometry. Mean±SE (N=3).
After 48 hr, annexin-V apoptosis assays (Thermo Fisher Scientific) were conducted to detect apoptotic cells. At least 10,000 cells in each case were analyzed by FACS (RRC, UIC).

[5] = system: LNCaP prostate cancer cells; experiment: MTT cell viability assay, LNCaP prostate cancer cells; assay type: cell-based, human
Method: as §2

Substance: LVN GGD DVA AAV NTA AQN NAD ALF VPPP (LVNGGDDVAAAVNTAAQNNADALFVPPP) [aurB]
- binding to ATP5C (pull-down of ~35 kDa protein, IB) [1]: physically bound to ATP5C; also recorded: pulled down an endogenous protein
- effect on p53-inactive cancer cells (MTT) ([2]; SKOV3 (p53-null), 0.1-100 μM): dose-dependent
- anti-proliferative effect (MTT cell viability) ([2]; SKOV-3, 5-100 μM): clear dose-dependent effects
- cytotoxic effect (MTT cell viability) ([3]; DU145 (p53-mutant, AR−), 24-72 hr, paclitaxel 1 nM): significantly induced dose-dependent cytotoxic effects; also recorded: more sensitive than the normal prostate cell line
- inhibition rate ([3]; DU145, 100 μM for 72 hr): ~50%
- anti-proliferative effect (MTT cell viability) ([3]; DU145, 5-100 μM, 24 hr): clear dose-dependent effects
- apoptotic cell death [4]: induced significant dose-dependent apoptosis
- cytotoxic effect (MTT cell viability) ([5]; LNCaP (p53 wild-type, AR+), 24-72 hr, paclitaxel 1 nM): significantly induced dose-dependent cytotoxic effects; also recorded: more sensitive than the normal prostate cell line
- inhibition rate ([5]; LNCaP, 100 μM for 72 hr): ~50%
